Consider one compound from patent US6641841B2, “Tablet composition” (Ajinomoto Co., Inc., priority 1996, dated 2003).

Data set [1] can be described thus: Bioavailability of compound [1] taken orally before or after a meal. Type of data set: in vivo.
In data set [2] the test system is blood sugar level. To be noted: taken orally; cited from earlier work.

With `CC(C)[C@H]1CC[C@H](C(=O)N[C@H](Cc2ccccc2)C(=O)O)CC1` [compound [1], N-(trans-4-isopropylcyclohexanecarbonyl)-D-phenylalanine], the bioavailability entry in data set [1] was “lowered”. Also, in data set [2], the “effect of lowering the blood sugar level” value was “excellent effect of lowering the blood sugar level”.
